Read-outs that look alike come from different tables or passages of the source. Where a SMILES comes first, the peptide text is derived from it. Where no end group is shown, it is not given here. [ ]: non-standard residue; d: D form. The star is where a group is joined. X1 = COCCOCCOCCOCCOCCOCCOCCOCCOCCOCCOCCOCCOCCOCCOCCOCCOCCOCCOCCOCCOCCOCCOCCOCCNC(=O)CCN1C(=O)CC(*)C1=O
Experiments:
[1] = biological target: T1, Recombinant human somatic ACE (sACE-1) (Homo sapiens, UniProt P12821); assay: Time-dependent inactivation of sACE-1; format: biochemical; conditions: pH 7.4, 37° C.
T1 construct: sACE-1: Leu30-Leu1261, with C-terminal His tag; His tag (C); purchased R&D Systems; host or cells: NS0-derived murine myeloma cell line
T1 sequence (P12821 30-1261): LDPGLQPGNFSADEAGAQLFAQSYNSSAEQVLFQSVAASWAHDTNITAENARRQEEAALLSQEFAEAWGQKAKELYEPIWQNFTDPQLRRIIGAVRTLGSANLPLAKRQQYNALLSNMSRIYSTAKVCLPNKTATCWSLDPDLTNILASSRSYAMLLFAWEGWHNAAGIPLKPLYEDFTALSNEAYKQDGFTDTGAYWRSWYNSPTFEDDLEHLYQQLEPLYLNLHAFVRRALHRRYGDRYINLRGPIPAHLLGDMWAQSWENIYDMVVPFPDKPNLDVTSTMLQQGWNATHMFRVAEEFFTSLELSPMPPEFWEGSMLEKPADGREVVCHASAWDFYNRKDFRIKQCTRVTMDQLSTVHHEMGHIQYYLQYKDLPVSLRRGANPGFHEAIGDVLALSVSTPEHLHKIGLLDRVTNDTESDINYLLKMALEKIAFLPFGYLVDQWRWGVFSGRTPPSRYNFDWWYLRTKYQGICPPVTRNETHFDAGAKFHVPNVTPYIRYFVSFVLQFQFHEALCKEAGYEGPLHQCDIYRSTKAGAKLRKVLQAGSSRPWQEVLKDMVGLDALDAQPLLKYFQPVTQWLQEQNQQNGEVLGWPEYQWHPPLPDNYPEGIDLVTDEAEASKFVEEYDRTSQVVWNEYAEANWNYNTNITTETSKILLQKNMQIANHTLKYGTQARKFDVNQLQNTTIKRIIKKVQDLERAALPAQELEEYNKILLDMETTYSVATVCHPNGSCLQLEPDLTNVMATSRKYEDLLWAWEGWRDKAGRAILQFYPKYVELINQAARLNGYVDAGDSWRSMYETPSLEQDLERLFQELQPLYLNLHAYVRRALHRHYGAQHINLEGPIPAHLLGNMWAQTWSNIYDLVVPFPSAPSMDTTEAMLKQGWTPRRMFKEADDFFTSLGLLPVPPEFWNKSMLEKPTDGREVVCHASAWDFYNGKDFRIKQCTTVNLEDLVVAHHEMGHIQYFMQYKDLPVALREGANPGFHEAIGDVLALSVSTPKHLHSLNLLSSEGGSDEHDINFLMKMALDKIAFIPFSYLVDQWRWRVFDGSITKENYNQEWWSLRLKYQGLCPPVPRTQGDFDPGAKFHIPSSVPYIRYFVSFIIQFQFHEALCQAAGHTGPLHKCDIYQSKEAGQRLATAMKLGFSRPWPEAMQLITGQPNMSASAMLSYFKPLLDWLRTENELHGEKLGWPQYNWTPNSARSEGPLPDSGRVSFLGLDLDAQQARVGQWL
Method: Time-Dependent Inactivation of sACE-1. sACE-1 and each M-chelate-lisinopril complex (prepared in the absence of Zn^2+) were preincubated for 20 min at 37° C. in a buffer containing 50 mM HEPES, 300 mM NaCl, 10 μM ZnCl2, 0.05% Brij35, pH 7.4, and after 20 min, coreactants ascorbate and/or H2O2 (or no coreactants) were added to initiate each reaction. Reaction concentrations were 1 nM sACE-1, a concentration of M-chelate-lisinopril that gave approximately 80% activity (calculated by use of equation (1), where A=80%; concentrations listed in the table in paragraph [00132]), and 1 mM ascorbate and/or H2O2 (or no coreactants). Each time-dependent ACE-inactivation reaction proceeded at 37° C. for a period of 2 h, and at each specific intervening time point, a 68.6 μL, aliquot of the reaction mixture containing sACE-1 was mixed with 1.4 μL of 0.5 mM fluorogenic substrate in a fluorescence cuvette. Substrate cleavage by sACE-1 was immediately monitored by real-time fluorimetry at 37° C., with excitation at 320 nm and emission at 405 nm. Initial rates were determined for each time point for the time-dependent inactivation of sACE-1, and these initial rates were expressed as a percentage (% maximal activity) of the average of several initial rates for uninhibited substrate cleavage by sACE-1, determined in the absence of both M-chelate-lisinopril complexes and coreactants. Plots of % maximal activity vs. time were fit to a first-order exponential decay model, and initial rates of inactivation of sACE-1 by M-chelate-lisinopril complexes were determined. Second-order rate constants for inactivation of sACE-1 were obtained using equation (2), where k2 is the second-order rate constant (M^−1 min^−1), R is the initial rate of enzyme inactivation (M/min) after subtraction of the corresponding background rate in the absence of M-chelate-lisinopril complex, but with the same coreactants, [I] is the concentration of M-chelate-lisinopril complex used (M), and [E] is the concentration of sACE-1 used (1×10^−9 M). Control experiments with M-chelate complexes lacking attached lisinopril were performed in the same manner and conditions used for the respective M-chelate-lisinopril complexes.

[2] = tested on: pUC19 plasmid DNA; assay: DNA nicking and linearization nuclease assay; format: biochemical; conditions: 10 μM base pairs pUC19; ascorbate/peroxide; — = Below detection limit
[3] = biological target: T1, Recombinant human somatic ACE (sACE-1); assay: Determination of IC50 values, sACE-1 fluorogenic substrate cleavage; format: biochemical
[4] = biological target: T2, full length sACE-1 (Homo sapiens, UniProt P12821); assay: Cleavage of full length sACE-1 monitored by SDS-PAGE; format: biochemical; conditions: Ascorbate, pH 7.4, 37° C.
T2 construct: sACE-1: Leu30-Leu1261, with C-terminal His tag; His tag (C); purchased R&D Systems; host or cells: NS0-derived murine myeloma cell line
T2 sequence (P12821 30-1261): as above

[5] = in vitro; conditions: human
[6] = tested on: HCV RNA replicon in ET (luc-ubi-neo/ET) Huh7 cells; conditions: read-out: antiviral IC50; 72 h, replicon-derived Luc activity
[7] = biological target: T3, HCV protease (Hepatitis C virus genotype 1a, UniProt P27958); format: biochemical
T3 sequence (P27958 1027-1208, other chains not shown): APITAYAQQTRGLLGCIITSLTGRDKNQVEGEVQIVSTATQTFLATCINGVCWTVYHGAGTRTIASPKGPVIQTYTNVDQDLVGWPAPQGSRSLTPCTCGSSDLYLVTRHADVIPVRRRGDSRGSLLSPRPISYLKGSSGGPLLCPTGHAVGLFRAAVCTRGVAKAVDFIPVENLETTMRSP
Text: (§1) This stems from the relationship between affinity and the on/off rate constants for binding (KA=kon/koff), where higher affinity binding is promoted by larger kon and/or smaller koff values. By contrast, efficient catalytic turnover requires koff values that are preferably no smaller than the rate constant for the inactivation chemistry (kcat), to ensure the availability of metallodrug catalyst for new target molecules, and will be best promoted by relatively high values for both kon and koff, which will result in weaker KA values.
(§2) Apparent binding affinities and rates of inactivation for HCV protease by several metallopeptide derivatives incorporating a Cu-GGH metal binding domain and C-terminal HCV protease targeting peptides were prepared and their affinity and reactivity were evaluated under in the presence of various redox reagents. Affinities lay within the range of 10^4M^−1 and 5×10^8 M^−1.

[8] = biological target: T3, HCV protease; assay: biochemical; format: binding; conditions: apparent binding affinity
Text: as §1, §2

[9] = tested on: stem loop IV HCV IRES RNA; format: biochemical, hepatitis C virus (HCV); conditions: cleavage of stem loop IV; 100 nM catalyst, 1 mM ascorbate, 1 mM H2O2
Method: (§3) HCV IRES RNA cleavage was monitored in vitro by fluorescence using 5′ fluorescein end-labeled RNA with excitation and emission wavelengths of 485 nm and 518 nm, respectively. Reactions were carried out in reaction volumes of 100 μl in the presence of 1 mM ascorbate and 1 mM H2O2 in 20 mM HEPES buffer (pH=7.4), 100 mM NaCl with 100 nM of the catalyst and analyzed according to the change in fluorescence observed as the reaction occurred. Both a time-dependence and a concentration-dependence of RNA substrate were observed. The initial velocities were fit to a line using Origin 7.0 software and kobs obtained. These values were then used to obtain the Michaelis-Menten parameters.

[10] = tested on: stem loop IIb HCV IRES RNA; format: biochemical, hepatitis C virus (HCV); conditions: cleavage of stem-loop IIb; 100 nM catalyst, 1 mM ascorbate, 1 mM H2O2
Method: as §3
The reactivity of select catalytic metallodrugs was investigated by Michaelis-Menten profiles. Reaction chemistry was followed by monitoring the fluorescence change of 5′-fluorescein-labeled RNA as a function of time. Initial velocities were measured as a function of substrate (RNA) concentration to generate a standard Michaelis-Menten plot (FIG. 2).

[11] = tested on: stem loop IV HCV IRES RNA; format: binding, hepatitis C virus (HCV)
Method: (§4) RNA was purchased from Dharmacon, part of Thermo Fisher Scientific (Lafayette, Colo.). Peptides were purchased from Genemed Synthesis Inc (South San Francisco, Calif.) with C-terminal amidation. The stem-loop (SL) structure (from Lytle et al., RNA 13: 539-48, 2002) is depicted in FIG. 6. The sequence for the IRES SL IIb RNA used was 5′-Fluorescein-[…]-3′, and for the IRES SL IV RNA was 5′-Fluorescein-[…]-3′. All RNA was annealed by heating to 95° C. and then cooled slowly to room temperature before use.
(§5) RNA binding experiments were performed in the presence of 84 nM GGHYrFK-amide in 20 mM HEPES (pH 7.4), 100 mM NaCl. For GGHYrFK-amide, serial additions of unlabeled IRES RNA were added and tyrosine emission was monitored (λex=280 nm, λem=313 nm). Binding data for GGHYr[…]-amide and GGHYr[…]-amide were obtained by adding serial additions of peptide to 5′-fluorescein labeled IRES SLIIb and monitoring at 518 nm (Ex=485 nm). Data was then fit to a one-site binding model.

[12] = tested on: stem-loop IIb of HCV IRES RNA; format: binding, hepatitis C virus (HCV); conditions: stem-loop IIb
Method: as §4, §5

[13] = biological target: T3, HCV protease; conditions: cited from earlier work

COCCOCCOCCOCCOCCOCCOCCOCCOCCOCCOCCOCCOCCOCCOCCOCCOCCOCCOCCOCCOCCOCCOCCOCCNC(=O)CCN1C(=O)CC(SC[C@H](NC(=O)CNC(=O)CNC(=O)[C@H](CCCCN)NC(=O)[C@H](Cc2ccccc2)NC(=O)[C@@H](CCCNC(=N)N)NC(=O)[C@H](Cc2ccc(O)cc2)NC(=O)CNC(=O)[C@H](Cc2c[nH]cn2)NC(=O)CNC(=O)CN)C(N)=O)C1=O (some centres unmarked) [Cu-GGHGYrFKGGC-PEG24] (H-GGHGY[dR]FKGGC(X1)-NH2)
CC50: > 50 µM

COCCOCCOCCOCCOCCOCCOCCOCCOCCOCCOCCOCCOCCOCCOCCOCCOCCOCCOCCOCCOCCOCCOCCOCCOCCOCCOCCOCCOCCOCCOCCOCCOCCOCCOCCOCCOCCOCCOCCOCCOCCOCCOCCOCCOCCOCCOCCOCCNC(=O)CCN1C(=O)CC(SC[C@H](NC(=O)CNC(=O)CNC(=O)[C@H](CCCCN)NC(=O)[C@H](Cc2ccccc2)NC(=O)[C@@H](CCCNC(=N)N)NC(=O)[C@H](Cc2ccc(O)cc2)NC(=O)CNC(=O)[C@H](Cc2c[nH]cn2)NC(=O)CNC(=O)CN)C(N)=O)C1=O (some centres unmarked) [Cu-GGHGYrFKGGC-PEG48]
CC50: > 50 µM

NCC(=O)NCC(=O)N[C@@H](Cc1c[nH]cn1)C(=O)O [Cu-GGH] (H-Gly-Gly-His-OH)
kinact/KI ([1]; pH 7.4, read-out: Second order rate constant for inactivation of sACE-1, M-chelate without lisinopril, Ascorbate + H2O2): 167 M⁻¹ s⁻¹
kinact/KI ([1]; pH 7.4, read-out: Second order rate constant for inactivation of sACE-1, M-chelate without lisinopril, Ascorbate): < 16.7 M⁻¹ s⁻¹
kinact/KI ([1]; pH 7.4, read-out: Second order rate constant for inactivation of sACE-1, M-chelate without lisinopril, H2O2): < 33.3 M⁻¹ s⁻¹
klin for DNA linearization, without attached Rev (M-chelate) [2]: 0.0012 ± 0.0002 min⁻¹
knick for DNA nicking, without attached Rev (M-chelate) [2]: 0.06 ± 0.01 min⁻¹
IC50 [3]: 17 µM

O=C([O-])CN(CC(=O)[O-])CC(=O)O.[Cu+2] [Cu-NTA]
klin for DNA linearization, without attached Rev (M-chelate) [2]: 0.0032 ± 0.0004 min⁻¹
knick for DNA nicking, without attached Rev (M-chelate) [2]: 0.148 ± 0.007 min⁻¹
IC50 ([3]; 1 nM sACE-1, 20 min preincubation, 37° C., pH 7.4, read-out: IC50's): 36 µM

O=C([O-])CN(CCN(CC(=O)[O-])CC(=O)[O-])CC(=O)[O-].[Fe+3] [Fe-EDTA]
Second order rate constant for inactivation of sACE-1, M-chelate without lisinopril ([1]; Ascorbate): 10,000 ± 50,000 M^−1min^−1
klin for DNA linearization, without attached Rev (M-chelate) [2]: 0.0005 ± 0.0001 min⁻¹
knick for DNA nicking, without attached Rev (M-chelate) [2]: 0.044 ± 0.009 min⁻¹
Second order rate constant for cleavage of full length sACE-1 (in brackets), M-chelate without lisinopril [4]: {<100,000} M^−1min^−1

CC[C@H](C)[C@H](NC(=O)[C@H](CCCCN)NC(=O)[C@H](C)NC(=O)[C@H](CCC(=O)O)NC(=O)[C@H](CC(C)C)NC(=O)[C@H](C)NC(=O)[C@H](C)N)C(=O)N[C@@H](CS)C(=O)N[C@@H](Cc1c[nH]cn1)C(=O)N[C@@H](CCC(N)=O)C(=O)N[C@H](C(=O)N[C@@H](CCC(=O)O)C(=O)N[C@@H](Cc1ccc(O)cc1)C(=O)N[C@@H](Cc1ccc(O)cc1)C(=O)N[C@@H](Cc1ccccc1)C(=O)NCC(=O)N[C@@H](CC(=O)O)C(=O)N[C@@H](Cc1ccccc1)C(N)=O)[C@@H](C)CC [reference compound] (H-AALEAKICHQIEYYFGDF-NH2)
CC50 at 72 h [5]: > 100 µM
IC50 [6]: > 100 µM

CC[C@H](C)[C@H](NC(=O)[C@H](CC(C)C)NC(=O)[C@H](CC(C)C)NC(=O)[C@H](CC(=O)O)NC(=O)[C@@H](NC(=O)[C@H](CCC(=O)O)NC(=O)[C@H](CCCCN)NC(=O)[C@H](Cc1ccc(O)cc1)NC(=O)[C@@H](N)CCCCN)[C@@H](C)O)C(=O)N[C@@H](CC(C)C)C(=O)N[C@@H](Cc1ccccc1)C(=O)N[C@@H](CCCCN)C(=O)N[C@@H](CC(=O)O)C(=O)N[C@@H](CC(=O)O)C(=O)N[C@@H](Cc1ccc(O)cc1)C(=O)N[C@@H](Cc1ccccc1)C(=O)N[C@@H](C)C(=O)N[C@@H](CCCCN)C(=O)N[C@@H](CCCCN)C(=O)N[C@@H](CC(N)=O)C(=O)N[C@@H](CCC(=O)O)C(=O)N[C@@H](CCC(=O)O)C(=O)N[C@@H](CCCNC(=N)N)C(=O)N[C@@H](CCCCN)C(N)=O [reference compound] (H-KYKETDLLILFKDDYFAKKNEERK-NH2)
CC50 at 72 h [5]: > 100 µM
IC50 [6]: > 100 µM

Cu-GGHGDEMEEC
rate constant for inactivation kinact (catalytic efficiency) ([7]; in the presence of ascorbate/O2): ~1.6 h⁻¹
kinact ([7]; in the presence of various redox reagents): 0.04 min⁻¹
KA [8]: 48000 M⁻¹

Cu-GGHKYKETDLLILFKDDYFAKKNEERK-amide
Vmax [9]: 2.0 RFU/min
Vmax [10]: 13.96 RFU/min
KA [11]: 143000 M⁻¹
Kd [11]: 7 µM
KA [12]: 556000 M⁻¹
Kd [12]: 1.8 µM

Cu-GGHYRFK-amide (GGHYRFK-NH2; also: Cu complex)
Vmax [9]: 0.95 RFU/min
Vmax [10]: 3.96 RFU/min
KA [11]: 145000 M⁻¹
Kd [11]: 6.9 µM
KA [12]: 145000 M⁻¹
Kd [12]: 6.9 µM

DDIVPC [Asp-Asp-Ile-Val-Pro-Cys]
Ki [13]: 79 µM

From patent US20140377289A1, “Metallodrugs Having Improved Pharmacological Properties, and Methods of Manufacture and Use Thereof” (MetalloPharm, LLC, priority 2011, published 2014)
